Reference: PubChem BioAssay (NCI)
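48-hour exposure; five concentrations; linearly interpolated endpoints. GI50: concentration for 50% inhibition of growth. TGI marks complete inhibition of growth.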

What was measured:
Test in all cases: inhibition of tumour cell growth, NCI panel, 48 h
SK-MEL-28 melanoma = system: SK-MEL-28 melanoma
MALME-3M melanoma = system: MALME-3M melanoma
UACC-257 melanoma = system: UACC-257 melanoma
HCT-116 colon = system: HCT-116 colon
SW-620 colon = system: SW-620 colon
KM12 colon = system: KM12 colon
SF-295 CNS = system: SF-295 CNS
SN12C renal = system: SN12C renal
HCT-15 colon = system: HCT-15 colon
PC-3 prostate = system: PC-3 prostate

Structure (SMILES)	GI50 (SK-MEL-28 melanoma)	TGI (SK-MEL-28 melanoma)	GI50 (MALME-3M melanoma)	TGI (MALME-3M melanoma)	TGI (UACC-257 melanoma)	GI50 (HCT-116 colon)	TGI (HCT-116 colon)	GI50 (SW-620 colon)	TGI (SW-620 colon)	TGI (KM12 colon)	TGI (SF-295 CNS)	GI50 (SN12C renal)	TGI (SN12C renal)	GI50 (HCT-15 colon)	TGI (HCT-15 colon)	TGI (PC-3 prostate)	GI50 (KM12 colon)	GI50 (SF-295 CNS)	GI50 (PC-3 prostate)	GI50 (UACC-257 melanoma)
COc1cc(-c2cc(CCC(=O)Nc3ccccc3[N+](=O)[O-])n(-c3ccc([N+](=O)[O-])cc3[N+](=O)[O-])n2)ccc1O	> 100 µM	> 100 µM	> 100 µM	> 100 µM	> 10 µM	> 100 µM	> 100 µM	> 100 µM	> 100 µM	> 10 µM	> 10 µM	> 100 µM	> 100 µM	> 10 µM	> 100 µM	–	–	–	–	–
Cc1cccc(NC(=O)CC#N)c1Cl	–	> 100 µM	–	> 100 µM	> 100 µM	–	> 100 µM	–	> 100 µM	> 100 µM	> 100 µM	–	> 100 µM	–	> 100 µM	–	–	–	–	–
CC1(C)OC(=O)C(=C2CC(c3ccccc3)c3ccccc32)C(=O)O1 (configuration not stated)	–	> 100 µM	–	> 100 µM	> 100 µM	–	> 100 µM	–	> 100 µM	–	> 100 µM	–	> 100 µM	–	> 100 µM	–	–	–	–	–
CCN(CC(COc1ccc2c(c1)[n+]([O-])nc(N)[n+]2[O-])OC(C)=O)C(C)=O (configuration not stated)	–	> 100 µM	–	–	> 100 µM	–	> 100 µM	–	> 100 µM	> 100 µM	> 100 µM	–	> 100 µM	–	> 100 µM	> 100 µM	–	–	–	–
BrC12c3ccccc3Sc3ccccc3C1(Br)c1ccccc12 (configuration not stated)	–	–	–	> 100 µM	86.3 µM	–	52.1 µM	–	> 100 µM	38.9 µM	61.4 µM	–	76.6 µM	–	46.3 µM	–	–	–	–	–
CC1=C(C(=O)Nc2ccccc2C)C(c2ccc(C3C(C(=O)Nc4ccccc4C)=CNC=C3C(=O)Nc3ccccc3C)cc2)C(C(=O)Nc2ccccc2C)=C(C)N1	–	36.3 µM	–	38.9 µM	33.2 µM	–	> 49.7 µM	–	32.6 µM	29.2 µM	37.7 µM	–	21.9 µM	–	41 µM	–	–	–	–	–
CC(=O)OCC1OC(Sc2ccccn2)C=CC1OC(C)=O (configuration not stated)	–	> 100 µM	–	> 100 µM	> 100 µM	–	> 100 µM	–	> 100 µM	> 100 µM	> 100 µM	–	> 100 µM	–	–	–	–	–	–	–
CC/C=C\C/C=C\C[C@H]1C/C=C2/C(=O)C=C[C@H]2C/C=C\CCC(=O)O1	3.12 µM	8.01 µM	2.85 µM	8.8 µM	–	3.63 µM	> 14.3 µM	2.11 µM	5.52 µM	5.7 µM	9.29 µM	3.46 µM	8.77 µM	2.23 µM	6 µM	12.5 µM	2.52 µM	3.01 µM	3.39 µM	–
O=C1c2cccnc2C(=O)c2c1c(C(=O)OCCN1CCOCC1)c1ccccn21	0.0458 µM	2.12 µM	0.0353 µM	0.985 µM	0.592 µM	0.0417 µM	1.49 µM	< 0.01 µM	3.23 µM	15.7 µM	1.05 µM	< 0.01 µM	1.78 µM	–	–	17.1 µM	0.0725 µM	0.0197 µM	0.0816 µM	0.0354 µM
